The target in the assay is T1, aurora A kinase (Homo sapiens, UniProt O14965).
T1 sequence (O14965 1-403): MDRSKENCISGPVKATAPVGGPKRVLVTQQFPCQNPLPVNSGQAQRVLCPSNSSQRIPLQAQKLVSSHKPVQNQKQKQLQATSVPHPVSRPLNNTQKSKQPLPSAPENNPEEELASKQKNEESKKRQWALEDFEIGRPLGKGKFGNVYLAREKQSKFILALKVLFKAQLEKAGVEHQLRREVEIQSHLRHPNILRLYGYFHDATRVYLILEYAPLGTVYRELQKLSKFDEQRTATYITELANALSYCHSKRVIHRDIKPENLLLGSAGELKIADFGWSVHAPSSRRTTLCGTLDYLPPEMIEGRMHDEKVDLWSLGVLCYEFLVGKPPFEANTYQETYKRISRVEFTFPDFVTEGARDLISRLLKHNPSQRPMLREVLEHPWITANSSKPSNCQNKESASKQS
Description: Aurora A in vitro kinase assay (ELISA). The following applies: 30 μM ATP, 45 minutes. The format is biochemical. Here is the method:
Kinase activities were measured by Enzyme-Linked Immunosorbent Assay (ELISA): Maxisorp 384-well plates (Nunc) were coated with recombinant fusion protein comprising residues 1-15 of Histone H3 fused to the N-terminus of Glutathione-S-Transferase. Plates were then blocked with a solution of 1 mg/mL I-block (Tropix Inc) in phosphate-buffered saline. Kinase reactions were carried out in the wells of the ELISA plate by combining an appropriate amount of Aur A and B kinases and/or mutants thereof with test compound and 30 μM ATP. The reaction buffer was 1× Kinase Buffer (Cell Signaling Technologies) supplemented with 1 μg/mL I-block. Reactions were stopped after 45 minutes by addition of 25 mM EDTA. After washing, susbstrate phosphorylation was detected by addition of anti-phospho-Histone H3 (Ser 10) 6G3 mAb (Cell Signaling cat #9706) and sheep anti-mouse pAb-HRP (Amersham cat# NA931V), followed by colorimetric development with TMB.
As usually defined, the IC50 is the point on the concentration scale where inhibition reaches its midpoint. Compound `CN(C)CCNC(=O)c1ccc(Nc2ncc(Cl)c(Nc3ccccc3NC(=O)C3CC3)n2)cc1` [compound 9] registered an IC50 of 2.5 nM.

In turn, `N#Cc1ccc(Nc2ncc(Cl)c(Nc3ccccc3NC(=O)C3CC3)n2)cc1` [compound 32] returned an IC50 of 1.3 nM.

As to `CC(C)(C)C1CCC(NC(=O)c2ccc(Nc3ncc(Cl)c(Nc4ccccc4NC(=O)C4CC4)n3)cc2)CC1` (centres unmarked) [compound 40], the IC50 stood at 12.1 nM.

In turn, `O=C(Nc1ccccc1Nc1nc(Nc2ccc(C(=O)N3CCC(O)(Cc4ccccc4)CC3)cc2)ncc1Cl)C1CC1` [compound 44] registered an IC50 of 1.8 nM.

The compound `O=C(Nc1ccccc1Nc1nc(Nc2ccc(-n3cccc3)cc2)ncc1Cl)C1CC1` [compound 53] displayed an IC50 of 6.4 nM.

As to `O=C(/C=C/c1ccccc1)Nc1ccccc1Nc1nc(Nc2ccc(N3CCOCC3)cc2)ncc1Cl` [compound 63], the IC50 came to 4.4 nM.

`O=C(Nc1ccccc1Nc1nc(Nc2ccc(N3CCOCC3)cc2)ncc1Cl)c1ccccc1` [compound 67] came in with an IC50 of 18.1 nM.

As to `O=C(Nc1ccccc1Nc1nc(Nc2ccc(N3CCOCC3)cc2)ncc1Cl)C1CCCCC1` [compound 75], the IC50 was 14.1 nM.

For the compound `CC(C)(C)C(=O)Nc1ccccc1Nc1nc(Nc2ccc(N3CCOCC3)cc2)ncc1Cl` [compound 77], half-maximal inhibition (IC50) was put at 4.2 nM.

In turn, `O=C(Nc1ccccc1Oc1nc(Nc2ccc(N3CCOCC3)cc2)ncc1Cl)C1CC1` [compound 80] gave an IC50 of 36.3 nM.

With `Nc1ccccc1Oc1nc(Nc2ccc(N3CCS(=O)(=O)CC3)cc2)ncc1Cl` [compound 83], the IC50 is 5 nM.

`O=C(NC1CC1)c1ccccc1Nc1nc(Nc2ccc(N3CCOCC3)cc2)ncc1Cl` [compound 85] showed an IC50 of 4.3 nM.

`O=C(Nc1ccccc1Nc1nc(Nc2ccc(N3CCOCC3)cc2)ncc1F)C1CC1` [compound 111] yielded an IC50 of 5 nM.

`O=C(Nc1ccccc1Nc1nc(Nc2ccc(N3CCOCC3)cc2)ncc1[N+](=O)[O-])C1CC1` [compound 127] came in with an IC50 of 10.2 nM.

(Values after US20100144732A1, “PYRIMIDINE KINASE INHIBITORS” (priority 2006, published 2010).)
